Experimental data: ChEMBL document CHEMBL5518226, “A Vancomycin-Templated DNA-Encoded Library for Combating Drug-Resistant Bacteria” (2024)
Converted amounts (≈) assume the structure as drawn. The source made the active and inactive calls. The rule behind the calls is not given here.

Legend:
[1] = test system: Enterococcus faecalis; experiment: Antibacterial activity against vancomycin resistant Enterococcus faecalis clinical isolate 20-1 assessed as inhibition of bacterial growth incubated for 24 hrs by CLSI protocol based broth microdilution method; type: functional
[2] = test system: Streptococcus pneumoniae; experiment: Antibacterial activity against penicillin susceptible Streptococcus pneumoniae clinical isolate 20-1 assessed as inhibition of bacterial growth incubated for 24 hrs by CLSI protocol based broth microdilution method; type: functional
[3] = test system: Staphylococcus aureus; experiment: Antibacterial activity against methicillin resistant Staphylococcus aureus USA300 assessed as inhibition of bacterial growth incubated for 24 hrs by CLSI protocol based broth microdilution method; type: functional
[4] = test system: Staphylococcus aureus; experiment: Antibacterial activity against vancomycin-intermediate resistant Staphylococcus aureus ATCC700699 assessed as inhibition of bacterial growth incubated for 24 hrs by CLSI protocol based broth microdilution method; type: functional
[5] = test system: Staphylococcus aureus; experiment: Antibacterial activity against methicillin resistant Staphylococcus aureus clinical isolate 20-34 assessed as inhibition of bacterial growth incubated for 24 hrs by CLSI protocol based broth microdilution method; type: functional
[6] = test system: Staphylococcus aureus; experiment: Antibacterial activity against vancomycin-intermediate resistant Staphylococcus aureus Mu50 assessed as reduction in bacterial growth by measuring fold change at 0.0625 to 64 ug/ml incubated for 24 hrs by CLSI protocol based broth microdilution method relative to vancomycin; type: functional; conditions: dose 0.0625-64 µg/ml
[7] = test system: Staphylococcus aureus; experiment: Antibacterial activity against linezolid resistant Staphylococcus aureus clinical isolate 20-1 assessed as inhibition of bacterial growth incubated for 24 hrs by CLSI protocol based broth microdilution method; type: functional
[8] = test system: Streptococcus pneumoniae; experiment: Antibacterial activity against Streptococcus pneumoniae ATCC49619 assessed as inhibition of bacterial growth incubated for 24 hrs by CLSI protocol based broth microdilution method; type: functional
[9] = test system: Enterococcus faecium; experiment: Antibacterial activity against vancomycin-resistant Enterococcus faecium 0649 assessed as reduction in bacterial growth by measuring fold change at 0.0625 to 64 ug/ml incubated for 24 hrs by CLSI protocol based broth microdilution method relative to vancomycin; type: functional; conditions: dose 0.0625-64 µg/ml
[10] = test system: Staphylococcus aureus; experiment: Antibacterial activity against methicillin sensitive Staphylococcus aureus clinical isolate 20-45 assessed as inhibition of bacterial growth incubated for 24 hrs by CLSI protocol based broth microdilution method; type: functional
[11] = test system: Enterococcus faecium; experiment: Antibacterial activity against Enterococcus faecium clinical isolate 20-15 assessed as inhibition of bacterial growth incubated for 24 hrs by CLSI protocol based broth microdilution method; type: functional
[12] = test system: Enterococcus faecium; experiment: Antibacterial activity against Enterococcus faecium clinical isolate 20-16 assessed as inhibition of bacterial growth incubated for 24 hrs by CLSI protocol based broth microdilution method; type: functional
[13] = test system: Staphylococcus aureus; experiment: Antibacterial activity against methicillin sensitive Staphylococcus aureus Newman assessed as inhibition of bacterial growth incubated for 24 hrs by CLSI protocol based broth microdilution method; type: functional
[14] = test system: Staphylococcus aureus; experiment: Antibacterial activity against methicillin sensitive Staphylococcus aureus ATCC29213 assessed as inhibition of bacterial growth incubated for 24 hrs by CLSI protocol based broth microdilution method; type: functional
[15] = test system: Enterococcus faecalis; experiment: Antibacterial activity against Enterococcus faecalis clinical isolate 20-11 assessed as inhibition of bacterial growth incubated for 24 hrs by CLSI protocol based broth microdilution method; type: functional
[16] = test system: Staphylococcus epidermidis; experiment: Antibacterial activity against methicillin resistant Staphylococcus epidermidis clinical isolate 20-1 assessed as inhibition of bacterial growth incubated for 24 hrs by CLSI protocol based broth microdilution method; type: functional
[17] = test system: Staphylococcus epidermidis; experiment: Antibacterial activity against methicillin sensitive Staphylococcus epidermidis clinical isolate 20-1 assessed as inhibition of bacterial growth incubated for 24 hrs by CLSI protocol based broth microdilution method; type: functional
[18] = test system: Staphylococcus aureus; experiment: Antibacterial activity against vancomycin-intermediate resistant Staphylococcus aureus Mu50 assessed as reduction in bacterial survival at 0.1 mg/ml; type: functional, organism-based
[19] = test system: Enterococcus faecium; experiment: Antibacterial activity against vancomycin-resistant Enterococcus faecium 0649 assessed as reduction in bacterial survival at 3 mg/ml; type: functional, organism-based
[20] = test system: Staphylococcus aureus; experiment: Antibacterial activity against vancomycin-intermediate resistant Staphylococcus aureus Mu50 assessed as reduction in bacterial survival at 0.25 to 3 mg/ml; type: functional, organism-based; conditions: dose 0.25-3 mg/ml
[21] = test system: Streptococcus pneumoniae; experiment: Antibacterial activity against penicillin resistant Streptococcus pneumoniae clinical isolate 20-1 assessed as inhibition of bacterial growth incubated for 24 hrs by CLSI protocol based broth microdilution method; type: functional
[22] = test system: Staphylococcus aureus; experiment: Antibacterial activity against vancomycin-intermediate resistant Staphylococcus aureus Mu50 assessed as reduction in fluorescence at 10 uM incubated for 1 hrs by fluorescence microscopic analysis; type: functional, organism-based

Row | Compound | MIC [1] | MIC [2] | MIC [3] | MIC [4] | MIC [5] | fold change (FC) [6] | MIC [8] | fold change (FC) [9] | MIC [10] | MIC [11] | MIC [12] | MIC [13] | MIC [14] | MIC [15] | MIC [16] | MIC [17] | also measured
1 | CN[C@H](CC(C)C)C(=O)N[C@H]1C(=O)N[C@@H](CC(N)=O)C(=O)N[C@H]2C(=O)N[C@H]3C(=O)N[C@H](C(=O)N[C@H](C(=O)NCCCc4cn(Cc5ccc(Cl)c(Cl)c5)nn4)c4cc(O)cc(O)c4-c4cc3ccc4O)[C@H](O)c3ccc(c(Cl)c3)Oc3cc2cc(c3O[C@@H]2O[C@H](CO)[C@@H](O)[C@H](O)[C@H]2O[C@H]2C[C@](C)(N)[C@H](O)[C@H](C)O2)Oc2ccc(cc2Cl)[C@H]1O | 16 µg/mL (≈ 9.32 µM) | ≤ 0.015 µg/mL | ≤ 0.015 µg/mL | 2 µg/mL (≈ 1.17 µM) | 0.125 µg/mL (≈ 0.0728 µM) | 8 | ≤ 0.015 µg/mL | 8 | 0.125 µg/mL (≈ 0.0728 µM) | ≤ 0.015 µg/mL | 0.06 µg/mL (≈ 0.035 µM) | 0.03 µg/mL (≈ 0.0175 µM) | 0.125 µg/mL (≈ 0.0728 µM) | 0.03 µg/mL (≈ 0.0175 µM) | 0.25 µg/mL (≈ 0.146 µM) | 0.25 µg/mL (≈ 0.146 µM) | MIC [7]: 0.125 µg/mL (≈ 0.0728 µM)
2 | CN[C@H](CC(C)C)C(=O)N[C@H]1C(=O)N[C@@H](CC(N)=O)C(=O)N[C@H]2C(=O)N[C@H]3C(=O)N[C@H](C(=O)N[C@H](C(=O)NCCCc4cn(-c5ccc(OC(F)F)cc5)nn4)c4cc(O)cc(O)c4-c4cc3ccc4O)[C@H](O)c3ccc(c(Cl)c3)Oc3cc2cc(c3O[C@@H]2O[C@H](CO)[C@@H](O)[C@H](O)[C@H]2O[C@H]2C[C@](C)(N)[C@H](O)[C@H](C)O2)Oc2ccc(cc2Cl)[C@H]1O | 16 µg/mL (≈ 9.41 µM) | ≤ 0.015 µg/mL | 0.06 µg/mL (≈ 0.0353 µM) | 1 µg/mL (≈ 0.588 µM) | 0.06 µg/mL (≈ 0.0353 µM) | 8 | ≤ 0.015 µg/mL | 8 | ≤ 0.015 µg/mL | ≤ 0.015 µg/mL | 0.125 µg/mL (≈ 0.0736 µM) | 0.125 µg/mL (≈ 0.0736 µM) | ≤ 0.015 µg/mL | ≤ 0.015 µg/mL | 0.25 µg/mL (≈ 0.147 µM) | 0.25 µg/mL (≈ 0.147 µM) | 
3 | CN[C@H](CC(C)C)C(=O)N[C@H]1C(=O)N[C@@H](CC(N)=O)C(=O)N[C@H]2C(=O)N[C@H]3C(=O)N[C@H](C(=O)N[C@H](C(=O)O)c4cc(O)cc(O)c4-c4cc3ccc4O)[C@H](O)c3ccc(c(Cl)c3)Oc3cc2cc(c3O[C@@H]2O[C@H](CO)[C@@H](O)[C@H](O)[C@H]2O[C@H]2C[C@](C)(N)[C@H](O)[C@H](C)O2)Oc2ccc(cc2Cl)[C@H]1O [VANCOMYCIN] | > 64 µg/mL | 0.25 µg/mL (≈ 0.173 µM) |  |  |  |  | 0.5 µg/mL (≈ 0.345 µM) |  |  |  |  |  |  | 1 µg/mL (≈ 0.69 µM) |  |  | Activity [18]: inactive; Activity [19]: inactive; Activity [20]: Active; MIC [21]: 0.25 µg/mL (≈ 0.173 µM)
4 | CC(C)C[C@H](C(=O)N[C@H]1C(=O)N[C@@H](CC(N)=O)C(=O)N[C@H]2C(=O)N[C@H]3C(=O)N[C@H](C(=O)N[C@H](C(=O)O)c4cc(O)cc(O)c4-c4cc3ccc4O)[C@H](O)c3ccc(c(Cl)c3)Oc3cc2cc(c3O[C@@H]2O[C@H](CO)[C@@H](O)[C@H](O)[C@H]2O[C@H]2C[C@](C)(N)[C@H](O)[C@H](C)O2)Oc2ccc(cc2Cl)[C@H]1O)N(C)C(=S)Nc1ccc2c(c1)C(=O)OC21c2ccc(O)cc2Oc2cc(O)ccc21 |  |  |  |  |  |  |  |  |  |  |  |  |  |  |  |  | Activity [22]: inactive
5 | C[C@H]1COc2c(N3CCN(C)CC3)c(F)cc3c(=O)c(C(=O)O)cn1c23 [LEVOFLOXACIN ANHYDROUS] | 64 µg/mL (≈ 177 µM) |  |  | 8 µg/mL (≈ 22.1 µM) | 16 µg/mL (≈ 44.3 µM) |  |  |  | 0.25 µg/mL (≈ 0.692 µM) | > 64 µg/mL | 64 µg/mL (≈ 177 µM) |  | 0.125 µg/mL (≈ 0.346 µM) | 1 µg/mL (≈ 2.77 µM) | 4 µg/mL (≈ 11.1 µM) | 4 µg/mL (≈ 11.1 µM) | MIC [7]: 16 µg/mL (≈ 44.3 µM)
6 | CN[C@H](CC(C)C)C(=O)N[C@H]1C(=O)N[C@@H](CC(N)=O)C(=O)N[C@H]2C(=O)N[C@H]3C(=O)N[C@H](C(=O)N[C@H](C(=O)O)c4cc(O)cc(O)c4-c4cc3ccc4O)[C@H](O)c3ccc(c(Cl)c3)Oc3cc2cc(c3O[C@@H]2O[C@H](CO)[C@@H](O)[C@H](O)[C@H]2O[C@H]2C[C@](C)(NCc3ccc(Oc4ccccc4)cc3)[C@H](O)[C@H](C)O2)Oc2ccc(cc2Cl)[C@H]1O | 8 µg/mL (≈ 4.9 µM) | ≤ 0.03 µg/mL | ≤ 0.06 µg/mL | 0.5 µg/mL (≈ 0.306 µM) |  | 8 | ≤ 0.03 µg/mL | 16 | ≤ 0.03 µg/mL | ≤ 0.03 µg/mL | ≤ 0.03 µg/mL | ≤ 0.06 µg/mL | ≤ 0.03 µg/mL | ≤ 0.03 µg/mL | 0.25 µg/mL (≈ 0.153 µM) | 0.125 µg/mL (≈ 0.0766 µM) | 
7 | CN[C@H](CC(C)C)C(=O)N[C@H]1C(=O)N[C@@H](CC(N)=O)C(=O)N[C@H]2C(=O)N[C@H]3C(=O)N[C@H](C(=O)N[C@H](C(=O)O)c4cc(O)cc(O)c4-c4cc3ccc4O)[C@H](O)c3ccc(c(Cl)c3)Oc3cc2cc(c3O[C@@H]2O[C@H](CO)[C@@H](O)[C@H](O)[C@H]2O[C@H]2C[C@](C)(NCc3ccc(C#Cc4ccccc4)cc3)[C@H](O)[C@H](C)O2)Oc2ccc(cc2Cl)[C@H]1O | 4 µg/mL (≈ 2.44 µM) | ≤ 0.015 µg/mL | ≤ 0.06 µg/mL | 0.125 µg/mL (≈ 0.0762 µM) | 1 µg/mL (≈ 0.61 µM) | 8 | ≤ 0.015 µg/mL | 16 | ≤ 0.015 µg/mL | ≤ 0.015 µg/mL | ≤ 0.015 µg/mL | ≤ 0.06 µg/mL | ≤ 0.015 µg/mL | ≤ 0.015 µg/mL |  | ≤ 0.015 µg/mL | 
